Experimental data from US10822376B2, “Biologically active peptides” (Baxalta Incorporated, priority 2008, dated 2020).
Where a SMILES comes first, the peptide text is derived from it. Where no end group is shown, it is not given here. [ ]: non-standard residue; d: D form.

How the values were obtained:
[1] = target: T1, HERG channel (Homo sapiens, UniProt Q12809); test: HERG inhibition, patch clamp assay; details: patch clamp assay
Description: QT prolongation is assessed by HERG inhibition measured by patch-clamp techniques or Rb^+ efflux.
For rigorous characterization of HERG inhibition the patch clamp assay is applied (Cerep, France, Catalog ref. 900-36). […] The test compounds (10 mM stock solutions) were dissolved in dimethylsulfoxide (DMSO). The solutions at 1 μM contained 0.01% DMSO.

[2] = test system: FVIII-inhibited human normal plasma; test: Defined Fibrin Deposition Assay (clotting time); format: biochemical; details: for Activity in the Defined Fibrin Deposition Assay: summary
Description: Another suitable assay to determine procoagulant activity, and particularly FVIII equivalent activity or FVIII inhibitor bypassing activity, is the Defined Fibrin Deposition Assay as described below. […] This assay is particularly useful for determining coagulation FVIII activity because it is conducted in the presence of FVIII-depleted or inhibited plasma.
The Defined Fibrin Deposition Assay is performed as follows. FVIII activity of human citrated plasma (Baxter AG) is first inhibited by incubating (2 hours, 37° C.) 100 μl of human normal plasma with 25 μl heat inactivated anti-human FVIII plasma (300 BU/ml, 6 hours incubated at 56° C.) raised in goat. For each sample to be tested, 125 μl of this FVIII-inhibited human normal plasma is transferred to a pre-warmed cuvette and a 75 μl dilution of a test compound or FEIBA reference standard (Baxter AG) is added. The dilutions of test compound or FEIBA reference standard contain 50 mM imidazole, 100 mM NaCl and 10 mg/ml human serum albumin (Sigma) pH 7.4. As a trigger and for providing procoagulant surfaces 100 μl of a mix of human factor XIa (3.13 nM, Enzyme Research Laboratories) and phospholipid (PL) vesicles (Phosphatidylcholine/Phosphatidylserine 60%/40%, 30 μM; Avanti Polar Lipids) in 50 mM Imidazole, 100 mM NaCl, 10 mg/ml human serum albumin (Sigma) pH 7.4 is included. After incubating for three minutes at 37° C. the coagulation reaction is started by adding 100 μl of 25 mM CaCl2. Clot formation is monitored by a coagulometer (KC10A, Amelung, Germany). In brief, each cuvette rotates slowly above the magnetic detection device and contains a small magnetic metallic ball. Whilst the plasma components remain in solution, the ball sits at the bottom of the cuvette. Over time, a clot begins to form, such that the ball starts to rotate with the developing clot in the rotating cuvette. The “clotting time” is recorded and is defined as the time from addition of the CaCl2) to the time that the developing clot begins to rotate the metallic ball. A standard curve for FEIBA reference standard dilutions is calculated by linear regression of logarithmic FEIBA concentrations (x-axis) against the clotting time (y-axis). Based on the clotting time of each compound concentration FEIBA equivalent activities are calculated according to this standard curve.
Thus, where a concentration of 100 μM is given, the actual concentration in the final assay volume in 25 μM.
Various peptides were tested for the ability to stimulate fibrin deposition in the Defined Fibrin Deposition Assay as described in the specific description.

[3] = target: T1, HERG channel; format: cell-based
Description: It was tested at 10 μM and the data were compared with historical values determined at Cerep.

[4] = in vitro; format: in vitro ADME; details: mouse, microsomes, pH 7.4
Description: Tests were used to determine the stability of compounds in microsomal preparations of human or animal origin. The microsomal stability is measured either in assays provided by Cerep (France, Catalog ref. 900-8h) or by the protocol described below. […] All wells must be carefully mixed to ensure a homogenous suspension before the next steps. 75 μl samples (duplicates) at t=0 minutes are taken for each compound. The plate is sealed and returned to the water bath/thermomixer for 30 minutes. The test compounds/standards are extracted by addition of 200 μl methanol, also including an internal standard. […] The samples are centrifuged at 1300 g for 10 min at 4° C. 200 μl of the supernatant is transferred into a 96-well plate with 10 μl DMSO per well. Compound stability is measured by HPLC-MS analysis (triplicates). The same procedure is repeated after 30 min. […] The signal to noise ratio for all peaks must be 5:1 or better. The ratio AUCanalyte: AUCstandard at the different timepoints must be used. The calculated stability for the control compound must fall in a certain range to validate the assay.

[5] = in vivo; details: C57BL/6, mouse
Description: Pharmacokinetics of compounds were tested in C57BI/6 mice or Wistar rats at 1-30 mg/kg. Compound concentrations in the blood stream were monitored at appropriate intervals using LC-MS.
Pharmacokinetic studies were performed to monitor compound concentrations in plasma following i.v., i.p. or s.c. administration. Studies were conducted in C57BI/6 mice weighing approximately 20 g.
Peptide concentrations in the plasma were analysed by HPLC-MS on a Surveyor HPLC combined with mass spectrometer LCQ classic or Advantage (all Thermo Electron, US) equipped with an ESI-source. All HPLC experiments were carried out on a Phenomenex C-18 Luna column (50 mm×2.0 mm, 5 μl injection volume) using a linear gradient: eluent A 0.05% trifluoracetic acid (TFA) in water; eluent B 0.05% TFA in acetonitrile; flow rate 0.3 mL/min in 10 min. […] The internal standard is prepared as a 0.1 μg/ml solution in 100% methanol. 50 μl plasma and 50 μl internal standard are mixed. 100 μl methanol is added and mixed thoroughly. After 30 min incubation on ice the vial is centrifuged for 15 min at 4° C. […] 150 μl of the supernatant are transferred into the HPLC vial

[6] = in vitro; details: human, plasma
Description: Half-life of compounds in human or mouse plasma, or percentage of compound remaining after an incubation in human or mouse plasma, is determined as follows. In the experimental procedure, test compound concentrations are 5 μM, prepared from test compound stock solutions of 10 mM in DMSO. Propantheline is used as a standard. […] All of the samples are incubated in a water bath at 37° C. […] After a chosen duration of incubation (generally at t=60 min) each sample is mixed with a further 500 μl acetonitrile. The samples are mixed on a vortex mixer for 30 s and placed on ice for 10 min and collected for centrifugation. Samples are centrifuged at 20 000 g for 10 min at 4° C. 500 μl supernatant is transferred into a new 1.5 ml Eppendorf tube and an equal volume of acetonitrile is added. The sample is mixed again for 30 s using a vortex mixer. After a second centrifugation step (20 000 g, 10 min, 4° C.) 250 μl of the supernatant is transferred into HPLC glass vials for HPLC-MS analysis. Conditions for performing HPLC are as follows: Injection-volume is set to 20 μl. Temperature is set to 25° C. A linear gradient from 95:5 to 5:95 water:acetonitrile both containing 0:05% trifluoroacetic acid (TFA) (v/v) is applied at a flow rate of 0.3 ml/min for 10 min. The PDA-detector is scanning from 210-400 nm.

[7] = target: mouse serum albumin (Mus musculus, UniProt P07724); test: in vitro; details: pH 7.4
[8] = in vitro; details: mouse, pH 7.4
[9] = in vitro; details: human, pH 7.4
[10] = test system: FIX−/− mice; test: Tail clip assay in FIX−/− mice (blood loss, survival); format: in vivo, mouse

T1 sequence (Q12809 whole entry): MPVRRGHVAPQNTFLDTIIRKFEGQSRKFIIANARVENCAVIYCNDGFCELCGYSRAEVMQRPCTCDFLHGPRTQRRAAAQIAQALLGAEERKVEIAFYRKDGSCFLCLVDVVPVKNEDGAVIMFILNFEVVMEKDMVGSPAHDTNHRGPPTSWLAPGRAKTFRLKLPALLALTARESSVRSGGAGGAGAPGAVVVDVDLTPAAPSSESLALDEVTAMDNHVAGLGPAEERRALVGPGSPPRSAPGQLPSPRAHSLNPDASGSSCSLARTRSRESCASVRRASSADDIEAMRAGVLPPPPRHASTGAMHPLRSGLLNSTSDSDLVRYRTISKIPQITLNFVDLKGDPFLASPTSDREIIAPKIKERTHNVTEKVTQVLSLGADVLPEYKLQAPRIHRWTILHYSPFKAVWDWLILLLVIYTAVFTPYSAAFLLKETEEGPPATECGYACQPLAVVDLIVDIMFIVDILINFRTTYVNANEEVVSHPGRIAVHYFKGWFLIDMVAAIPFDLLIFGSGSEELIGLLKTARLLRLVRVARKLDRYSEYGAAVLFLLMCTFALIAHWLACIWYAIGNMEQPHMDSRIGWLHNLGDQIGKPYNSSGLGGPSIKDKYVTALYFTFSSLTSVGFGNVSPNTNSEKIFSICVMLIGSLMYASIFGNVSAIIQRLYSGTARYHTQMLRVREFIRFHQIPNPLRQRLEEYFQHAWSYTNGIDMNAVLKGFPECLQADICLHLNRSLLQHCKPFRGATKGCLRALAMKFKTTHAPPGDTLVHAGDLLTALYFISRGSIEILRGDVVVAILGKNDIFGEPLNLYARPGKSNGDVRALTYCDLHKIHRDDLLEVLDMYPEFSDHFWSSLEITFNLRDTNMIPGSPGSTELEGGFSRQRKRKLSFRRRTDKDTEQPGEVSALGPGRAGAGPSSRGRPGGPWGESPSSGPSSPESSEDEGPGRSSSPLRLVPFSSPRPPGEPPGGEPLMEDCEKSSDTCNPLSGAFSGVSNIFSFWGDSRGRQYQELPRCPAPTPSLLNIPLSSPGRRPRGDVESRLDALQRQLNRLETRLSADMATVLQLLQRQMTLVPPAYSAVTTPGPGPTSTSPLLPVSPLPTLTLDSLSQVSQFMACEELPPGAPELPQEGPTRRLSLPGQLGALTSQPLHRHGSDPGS
Sequence of mouse serum albumin (P07724 25-608): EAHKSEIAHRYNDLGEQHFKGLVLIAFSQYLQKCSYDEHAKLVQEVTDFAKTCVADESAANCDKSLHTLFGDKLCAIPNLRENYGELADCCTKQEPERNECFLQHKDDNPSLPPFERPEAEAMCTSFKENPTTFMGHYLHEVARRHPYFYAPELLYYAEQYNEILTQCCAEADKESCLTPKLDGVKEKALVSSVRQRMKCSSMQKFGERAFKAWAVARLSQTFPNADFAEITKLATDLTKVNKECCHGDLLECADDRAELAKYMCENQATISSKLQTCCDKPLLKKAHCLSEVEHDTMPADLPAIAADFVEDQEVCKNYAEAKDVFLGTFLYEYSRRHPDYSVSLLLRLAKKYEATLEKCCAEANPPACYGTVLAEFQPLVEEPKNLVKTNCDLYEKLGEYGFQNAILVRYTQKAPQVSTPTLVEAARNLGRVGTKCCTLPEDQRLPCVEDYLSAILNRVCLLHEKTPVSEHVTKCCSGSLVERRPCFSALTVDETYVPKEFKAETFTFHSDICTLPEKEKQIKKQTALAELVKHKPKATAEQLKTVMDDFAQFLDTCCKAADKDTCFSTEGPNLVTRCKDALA

CC[C@@H](C)[C@@H](NC(=O)[C@@H](CS)NC(C)=O)C(=O)N[C@H](CCSC)C(=O)N[C@H](Cc1ccccc1)C(=O)N[C@H](Cc1c[nH]c2ccccc12)C(=O)N[C@H](Cc1ccc(O)cc1)C(=O)N[C@H](CC(=O)O)C(=O)N[C@H](CCC(=O)O)C(=O)N[C@H](Cc1ccc(O)cc1)C(=O)N[C@H](CCC(=O)O)C(N)=O [Peptide B03, Ac-cimfwydeye-NH2] (Ac-[dC][dI][dM][dF][dW][dY][dD][dE][dY][dE]-NH2)
Classification as HERG-channel blocker (potency ranking of Roche et al.) [1]: high potency
FEIBA EU (from clotting time) ([2]; compound 12.5 μM): 291 mU/ml
FEIBA EU (from clotting time) ([2]; compound 25 μM): 325 mU/ml
Activity in the Defined Fibrin Deposition Assay [2]: possess activity
HERG inhibition Rb+ efflux (% Inhibition at 10 μM) [3]: −2.1%

Ac-PMKFDVWDLYFEIVW-NH2 [Peptide A02]
remaining at 0.5 h, 1 μM [4]: 45%
level at 5 min ([5]; ip): 273 ng/mL
level at 20 min ([5]; ip): 315 ng/mL
level at 40 min ([5]; ip): 289 ng/mL
level at 1 h ([5]; ip): 612 ng/mL
level at 80 min ([5]; ip): 99 ng/mL
level at 100 min ([5]; ip): 176 ng/mL
level at 5 min ([5]; iv): 11600 ng/mL
level at 10 min ([5]; iv): 7260 ng/mL
level at 0.25 h ([5]; iv): 3180 ng/mL
level at 20 min ([5]; iv): 2740 ng/mL
level at 25 min ([5]; iv): 1440 ng/mL
level at 0.5 h ([5]; iv): 1310 ng/mL
remaining at 0.5 h, 5 μM [6]: 84%
HERG inhibition Rb+ efflux (% Inhibition at 10 μM) [3]: −3.3%

Ac-RMKFDVWDLYFEIVW-NH2 [Peptide A01]
fraction unbound at 6 h, 5 μM [7]: < 0.003
recovery at 6 h, 5 μM [7]: > 103%
recovery at 6 h, 5 μM [8]: > 73.3%
fraction unbound at 6 h, 5 μM ([8]; plasma): < 0.008
Classification as HERG-channel blocker (potency ranking of Roche et al.) [1]: low-potency
remaining at 0.5 h, 1 μM [4]: 30%
FEIBA EU (from clotting time) ([2]; compound 25 μM): 80 mU/ml
FEIBA EU (from clotting time) ([2]; compound 50 μM): 127 mU/ml
FEIBA EU (from clotting time) ([2]; compound 100 μM): 145 mU/ml
Activity in the Defined Fibrin Deposition Assay [2]: possess activity
level at 5 min ([5]; iv): 673 ng/mL
level at 10 min ([5]; iv): 352 ng/mL
level at 0.25 h ([5]; iv): 454 ng/mL
level at 20 min ([5]; iv): 145 ng/mL
level at 25 min ([5]; iv): 282 ng/mL
level at 0.5 h ([5]; iv): 115 ng/mL
remaining at 0.5 h, 5 μM [6]: 58%
recovery at 6 h, 5 μM [9]: > 88.6%
fraction unbound at 6 h, 5 μM ([9]; plasma): < 0.017
Survival vs vehicle alone ([10]; 20 mg/kg i.v.): no significant difference
Mean volume of blood loss following tail clip compared to vehicle control ([10]; 20 mg/kg i.v. five minutes before tail clip, any time points): not significantly different
Effect in FIX−/− mice ([10]; conclusion): no effect

Ac-WDLYFEIVW-NH2 [Peptide A05]
Classification as HERG-channel blocker (potency ranking of Roche et al.) [1]: low-potency
FEIBA EU (from clotting time) ([2]; compound 10 μM): 119 mU/ml
FEIBA EU (from clotting time) ([2]; compound 25 μM): 193 mU/ml
FEIBA EU (from clotting time) ([2]; compound 50 μM): 219 mU/ml
Activity in the Defined Fibrin Deposition Assay [2]: possess activity
level at 5 min ([5]; ip): 119 ng/mL
level at 20 min ([5]; ip): 165 ng/mL
level at 40 min ([5]; ip): 185 ng/mL
level at 1 h ([5]; ip): 130 ng/mL
level at 80 min ([5]; ip): 49 ng/mL
level at 100 min ([5]; ip): 50 ng/mL
level at 5 min ([5]; iv): 2600 ng/mL
level at 10 min ([5]; iv): 2040 ng/mL
level at 0.25 h ([5]; iv): 173 ng/mL
level at 20 min ([5]; iv): 101 ng/mL
level at 25 min ([5]; iv): 23 ng/mL
remaining at 0.5 h, 5 μM [6]: 93%

Ac-WDLYFEIVWE [Peptide A06]
remaining at 0.5 h, 1 μM [4]: 49%
FEIBA EU (from clotting time) ([2]; compound 12.5 μM): 232 mU/ml
FEIBA EU (from clotting time) ([2]; compound 25 μM): 168 mU/ml
Activity in the Defined Fibrin Deposition Assay [2]: possess activity
level at 5 min ([5]; ip): 6440 ng/mL
level at 20 min ([5]; ip): 7770 ng/mL
level at 40 min ([5]; ip): 547 ng/mL
level at 1 h ([5]; ip): 5800 ng/mL
level at 80 min ([5]; ip): 4060 ng/mL
level at 100 min ([5]; ip): 3020 ng/mL
level at 5 min ([5]; iv): 50000 ng/mL
level at 10 min ([5]; iv): 32600 ng/mL
level at 0.25 h ([5]; iv): 21000 ng/mL
level at 20 min ([5]; iv): 15600 ng/mL
level at 25 min ([5]; iv): 11300 ng/mL
level at 0.5 h ([5]; iv): 7790 ng/mL
remaining at 0.5 h, 5 μM [6]: 98%
HERG inhibition Rb+ efflux (% Inhibition at 10 μM) [3]: −6.4%

H-ERMEFDVWDLYFEIVW-NH2 [Peptide A09]
remaining at 0.5 h, 1 μM [4]: 23%
level at 5 min ([5]; ip): 34 ng/mL
level at 20 min ([5]; ip): 67 ng/mL
level at 40 min ([5]; ip): 60 ng/mL
level at 1 h ([5]; ip): 129 ng/mL
level at 80 min ([5]; ip): 74 ng/mL
level at 100 min ([5]; ip): 68 ng/mL
level at 5 min ([5]; iv): 350 ng/mL
level at 10 min ([5]; iv): 184 ng/mL
level at 0.25 h ([5]; iv): 109 ng/mL
level at 20 min ([5]; iv): 119 ng/mL
level at 25 min ([5]; iv): 64 ng/mL
level at 0.5 h ([5]; iv): 80 ng/mL
remaining at 0.5 h, 5 μM [6]: 67%
HERG inhibition Rb+ efflux (% Inhibition at 10 μM) [3]: −1.6%
